Assay results taken from ChEMBL document CHEMBL1201862, “PubChem BioAssay data set” (2004).
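Each compound was tested at five concentrations against cells in 96-well plates for 48 hours. GI50 is the concentration that inhibits growth by half.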 Calls of active or inactive are those of the source. Cut-off read from the data, not from the text of the source: active = GI50 up to about 1.1 µM and inactive = higher.

Legend:
Experiment in all cases: NCI anticancer screen, dose series, 48 h
HOP-62 = tested on: HOP-62
SF-268 = tested on: SF-268
CCRF-CEM = tested on: CCRF-CEM
OVCAR-4 = tested on: OVCAR-4
786-0 = tested on: 786-0
CAKI-1 = tested on: CAKI-1
NCI-H226 = tested on: NCI-H226
PC-3 = tested on: PC-3
COLO 205 = tested on: COLO 205
SK-OV-3 = tested on: SK-OV-3
NCI-H522 = tested on: NCI-H522
HCT-116 = tested on: HCT-116
SK-MEL-28 = tested on: SK-MEL-28
U-251 = tested on: U-251
NCI-H460 = tested on: NCI-H460
MOLT-4 = tested on: MOLT-4
SR = tested on: SR
Hs-578T = tested on: Hs-578T
NCI-H23 = tested on: NCI-H23
BT-549 = tested on: BT-549
SK-MEL-5 = tested on: SK-MEL-5
OVCAR-3 = tested on: OVCAR-3
MDA-MB-435 = tested on: MDA-MB-435
K562 = tested on: K562
OVCAR-8 = tested on: OVCAR-8
MDA-MB-231 = tested on: MDA-MB-231
OVCAR-5 = tested on: OVCAR-5
ACHN = tested on: ACHN
KM12 = tested on: KM12
HCC 2998 = tested on: HCC 2998
RXF 393 = tested on: RXF 393
IGROV-1 = tested on: IGROV-1
MCF7 = tested on: MCF7
SF-295 = tested on: SF-295
EKVX = tested on: EKVX
UACC-62 = tested on: UACC-62
Malme-3M = tested on: Malme-3M
HOP-92 = tested on: HOP-92
UO-31 = tested on: UO-31
SN12C = tested on: SN12C
SF-539 = tested on: SF-539
NCI/ADR-RES = tested on: NCI/ADR-RES
M14 = tested on: M14
TK-10 = tested on: TK-10
HCT-15 = tested on: HCT-15
SNB-75 = tested on: SNB-75
SW-620 = tested on: SW-620
A549 = tested on: A549
T47D = tested on: T47D
UACC-257 = tested on: UACC-257
LOX IMVI = tested on: LOX IMVI
MDA-N = tested on: MDA-N
RPMI-8226 = tested on: RPMI-8226
SNB-19 = tested on: SNB-19
HT-29 = tested on: HT-29
A498 = tested on: A498
SK-MEL-2 = tested on: SK-MEL-2

CC(/C=N/N=C1NCCCN1)=N\N=C1NCCCN1
GI50 (HOP-62): > 100 µM (inactive) | GI50 (SF-268): > 100 µM (inactive) | GI50 (CCRF-CEM): > 100 µM (inactive) | GI50 (OVCAR-4): > 100 µM (inactive) | GI50 (786-0): > 100 µM (inactive) | GI50 (CAKI-1): > 100 µM (inactive) | GI50 (NCI-H226): > 100 µM (inactive) | GI50 (PC-3): > 100 µM (inactive) | GI50 (COLO 205): > 100 µM (inactive) | GI50 (SK-OV-3): > 100 µM (inactive) | GI50 (NCI-H522): > 100 µM (inactive) | GI50 (HCT-116): > 100 µM (inactive) | GI50 (SK-MEL-28): > 100 µM (inactive) | GI50 (U-251): > 100 µM (inactive) | GI50 (NCI-H460): > 100 µM (inactive) | GI50 (MOLT-4): > 100 µM (inactive) | GI50 (SR): > 100 µM (inactive) | GI50 (Hs-578T): > 100 µM (inactive) | GI50 (NCI-H23): > 100 µM (inactive) | GI50 (BT-549): > 100 µM (inactive) | GI50 (SK-MEL-5): > 100 µM (inactive) | GI50 (OVCAR-3): > 100 µM (inactive) | GI50 (MDA-MB-435): > 100 µM (inactive) | GI50 (K562): > 100 µM (inactive) | GI50 (OVCAR-8): > 100 µM (inactive) | GI50 (MDA-MB-231): > 100 µM (inactive) | GI50 (OVCAR-5): > 100 µM (inactive) | GI50 (ACHN): > 100 µM (inactive) | GI50 (KM12): > 100 µM (inactive) | GI50 (HCC 2998): > 100 µM (inactive) | GI50 (RXF 393): > 100 µM (inactive) | GI50 (IGROV-1): > 100 µM (inactive) | GI50 (MCF7): > 100 µM (inactive) | GI50 (SF-295): > 100 µM (inactive) | GI50 (EKVX): > 100 µM (inactive) | GI50 (UACC-62): > 100 µM (inactive) | GI50 (Malme-3M): > 100 µM (inactive) | GI50 (HOP-92): 40.2 µM (inactive) | GI50 (UO-31): > 100 µM (inactive) | GI50 (SN12C): > 100 µM (inactive) | GI50 (SF-539): > 100 µM (inactive) | GI50 (NCI/ADR-RES): > 100 µM (inactive) | GI50 (M14): > 100 µM (inactive) | GI50 (TK-10): > 100 µM (inactive) | GI50 (HCT-15): > 100 µM | GI50 (SNB-75): > 100 µM (inactive) | GI50 (SW-620): > 100 µM (inactive) | GI50 (A549): > 100 µM (inactive) | GI50 (T47D): > 100 µM (inactive) | GI50 (UACC-257): > 100 µM (inactive) | GI50 (LOX IMVI): > 100 µM (inactive) | GI50 (MDA-N): > 100 µM (inactive) | GI50 (RPMI-8226): > 100 µM (inactive) | GI50 (SNB-19): > 100 µM (inactive) | GI50 (HT-29): > 100 µM (inactive)

O=c1[nH]c2ccc(Cl)cc2c2oc(-c3ccccc3)nc12
GI50 (HOP-62): 20.7 µM (inactive) | GI50 (SF-268): 36 µM (inactive) | GI50 (CCRF-CEM): 45.5 µM (inactive) | GI50 (OVCAR-4): 18.1 µM (inactive) | GI50 (786-0): 16 µM (inactive) | GI50 (CAKI-1): 21.6 µM (inactive) | GI50 (NCI-H226): 21.2 µM (inactive) | GI50 (PC-3): 29.9 µM (inactive) | GI50 (COLO 205): 65.8 µM (inactive) | GI50 (SK-OV-3): 24.2 µM (inactive) | GI50 (NCI-H522): 16.9 µM (inactive) | GI50 (HCT-116): 16.4 µM (inactive) | GI50 (U-251): 20.7 µM (inactive) | GI50 (NCI-H460): 20 µM (inactive) | GI50 (MOLT-4): 76.2 µM (inactive) | GI50 (SR): 21 µM (inactive) | GI50 (Hs-578T): 15.7 µM (inactive) | GI50 (NCI-H23): 25.2 µM (inactive) | GI50 (BT-549): > 100 µM (inactive) | GI50 (SK-MEL-5): 25.9 µM (inactive) | GI50 (OVCAR-3): 21.2 µM (inactive) | GI50 (MDA-MB-435): 51.6 µM (inactive) | GI50 (K562): 72.6 µM (inactive) | GI50 (OVCAR-8): 5.62 µM (inactive) | GI50 (MDA-MB-231): 19.3 µM (inactive) | GI50 (OVCAR-5): 52.1 µM (inactive) | GI50 (ACHN): 24.5 µM (inactive) | GI50 (A498): 21.3 µM (inactive) | GI50 (KM12): 40.8 µM (inactive) | GI50 (HCC 2998): 26.3 µM (inactive) | GI50 (RXF 393): 14.1 µM (inactive) | GI50 (IGROV-1): 29.1 µM (inactive) | GI50 (MCF7): 6.07 µM (inactive) | GI50 (SF-295): 21.6 µM (inactive) | GI50 (EKVX): 30.5 µM (inactive) | GI50 (UACC-62): 70.5 µM (inactive) | GI50 (Malme-3M): 29.3 µM (inactive) | GI50 (HOP-92): 28.4 µM (inactive) | GI50 (SK-MEL-2): 17.8 µM (inactive) | GI50 (UO-31): 22.1 µM (inactive) | GI50 (SN12C): 21.7 µM (inactive) | GI50 (SF-539): 29.3 µM (inactive) | GI50 (NCI/ADR-RES): 29.5 µM (inactive) | GI50 (M14): 88.5 µM (inactive) | GI50 (TK-10): 35.5 µM (inactive) | GI50 (HCT-15): 51.6 µM | GI50 (SW-620): 44.6 µM (inactive) | GI50 (A549): 22.1 µM (inactive) | GI50 (T47D): 19.2 µM (inactive) | GI50 (UACC-257): 52.7 µM (inactive) | GI50 (LOX IMVI): 32.5 µM (inactive) | GI50 (MDA-N): 45.7 µM (inactive) | GI50 (RPMI-8226): 26 µM (inactive) | GI50 (SNB-19): 19.8 µM (inactive) | GI50 (HT-29): 83.9 µM (inactive)
